According to article PMC10415494, “Ga(III) pyridinecarboxylate complexes: potential analogues of the second generation of therapeutic Ga(III) complexes?” (Journal of Biological Inorganic Chemistry, 2023):

Columns and labels:
[1] = test system: Escherichia coli (E. coli) CCM 3988; experiment: Antimicrobial activity, macrodilution method (growth by A590); format: cell-based; conditions: for IC50: Bacteria, MHB, 37 °C, DMSO max 1.0 vol. %, read-out: IC50 E. coli; for partial inhibition of E. coli growth: concentration not given
Description: (§1) The antimicrobial activities of gallium(III) complexes GaPic, GaDpic, GaChel, GaCldpic, free ligands (HPic, H2Dpic, H2Chel, H2Cldpic) and positive controls (cefoxitin (C), ampicillin (A) and piperacillin (P)) were evaluated by macrodilution method using G^+ bacteria (Firmicutes) Staphylococcus aureus (S. aureus) CCM 3953 (Czech Collection of Microorganisms), G^− bacteria (γ-proteobacteria) Escherichia coli (E. coli) CCM 3988, Pseudomonas aeruginosa (P. aeruginosa) CCM 1959 (Czech Collection of Microorganisms) and the yeast Candida parapsilosis (C. parapsilosis) ATCC 22019 (American type culture collection). Cultures of bacteria (in Mueller–Hinton broth, MHB) and yeasts (in Sabouraud’s growth medium, SB) were incubated under shaking (250 rpm) at 37 °C. The growth of bacteria and yeasts was evaluated by measuring the absorbance of the growing cultures (A590) until the cultures reached the stationary growth phase. The effects of gallium(III) complexes on the growth of filamentous fungi Rhizopus oryzae (R. oryzae) CCM F-8284, Alternaria alternata (A. alternata) CCM F-128 and Microsporum gypseum (M. gypseum) CCM F-8342 (Czech Collection of Microorganisms) were observed by macrodilution method on solidified potato-dextrose growth medium (PDA). During culturing, the diameters of growing fungal colonies were measured at regular intervals. Briefly, the antimicrobial activity (bacteria and yeasts) gallium(III) complexes/ ligands were added to the microbial culture at the beginning of the cultivation-to the lag phase. Pure gallium(III) complexes/ligands were dissolved in DMSO. The final concentration of DMSO never exceeded 1.0 vol. % neither in control nor treated samples. Concentration of gallium(III) complexes used in experimental work for evaluation of antimicrobial activity was used in the range of 0.05–2 mM, for the free ligands in the range of 0.5–2.0 mM in all experiments. […] The IC50 values were evaluated from toxicity curves. All the obtained results of antimicrobial activity were compared to the activity of Ga(NO3)3.

[2] = test system: Pseudomonas aeruginosa (P. aeruginosa) CCM 1959; experiment: as above; format: cell-based; conditions: for IC50: Bacteria, MHB, 37 °C, DMSO max 1.0 vol. %, read-out: IC50 P. aeruginosa
Description: as §1

[3] = test system: Staphylococcus aureus (S. aureus) CCM 3953; experiment: as above; format: cell-based; conditions: for IC50: Bacteria, MHB, 37 °C, DMSO max 1.0 vol. %, read-out: IC50 S. aureus; for inhibition of S. aureus growth: complex at 2 mM
Description: as §1

[4] = test system: Candida parapsilosis (C. parapsilosis) ATCC 22019; experiment: Antimicrobial activity, macrodilution method (yeast, growth by A590); format: cell-based; conditions: Yeast; Sabouraud's growth medium, 37 °C; read-out: IC50 C. parapsilosis
Description: as §1

[5] = test system: Alternaria alternata (A. alternata) CCM F-128; experiment: Growth of filamentous fungi, macrodilution method on solidified PDA (colony diameter); format: cell-based; conditions: Filamentous fungi; solidified potato-dextrose growth medium; read-out: IC50 A. alternata
Description: as §1

[6] = test system: Microsporum gypseum (M. gypseum) CCM F-8342; experiment: as above; format: cell-based; conditions: Filamentous fungi; solidified potato-dextrose growth medium; read-out: IC50 M. gypseum
Description: as §1

[7] = test system: Rhizopus oryzae (R. oryzae) CCM F-8284; experiment: as above; format: cell-based; conditions: solidified potato-dextrose growth medium; read-out: IC50 R. oryzae
Description: as §1

[8] = test system: A2058 (human metastatic melanoma); experiment: MTS antiproliferative assay
Description: (§2) Cell culture the cell lines A2058 (human metastatic melanoma), BLM (human metastatic melanoma), HCT116 (human colorectal carcinoma), HeLa (human cervical adenocarcinoma), Jurkat (human leukaemic T cell lymphoma). […] Cells were maintained in standard conditions with an atmosphere containing 5% CO2 at 37 °C.
(§3) The antiproliferative activity of Ga(III) complexes GaPic, GaDpic, GaChel, GaCldpic, free ligands (HPic, H2Dpic, H2Chel, H2Cldpic) and cisplatin (cisPt) were evaluated by colorimetric microculture MTS (3-(4,5-dimethylthiazol-2-yl)-5-(3-carboxymethoxyphenyl)-2-(4-sulfophenyl)-2H tetrazolium) assay (Promega, Madison, WI, USA). Cancer and non-cancer cells were seeded at density 5 × 10^3 cells/well in 96-well polystyrene microplates. Twenty-four hours after cell seeding, different concentrations (1.0—100.0 µM) of the compounds were tested. After 72 h of incubation, 10 µL of MTS was added to each well. After an additional 2 h, cell proliferation was evaluated by measuring of absorbance at wavelength 490 nm using the automated Cytation™ 3 Cell Imaging Multi-Mode Reader (Biotek, Winooski, VT, USA). The absorbance of control wells was taken as 100%, and the results were expressed as a percent of untreated control. IC50 values were calculated from MTS analyses.

[9] = test system: HCT116 (human colorectal carcinoma); experiment: MTS antiproliferative assay
Description: as §2, §3

[10] = test system: HeLa (human cervical adenocarcinoma); experiment: MTS antiproliferative assay
Description: as §2, §3

[11] = test system: Jurkat (human leukaemic T cell lymphoma); experiment: MTS antiproliferative assay
Description: as §2, §3

[12] = test system: MDA-MB-231 (human mammary gland adenocarcinoma); experiment: MTS antiproliferative assay
Description: as §2, §3

[13] = test system: PaTu 8902 (human pancreatic adenocarcinoma); experiment: MTS antiproliferative assay
Description: as §2, §3

[14] = test system: human dermal fibroblasts (HDF); experiment: in vitro
Description: as §2, §3

[15] = Complex stability in biological testing medium by time-dependent 1H NMR; format: physicochemical; conditions: 300 K, over 96 h
Description: Nuclear magnetic resonance (NMR) data were collected on a Varian VNMRS 600 spectrometer operating at 599.87 MHz for ^1H. The concentration of all samples was approximately 3 mg/0.6 mL of 1% DMSO-d6/D2O. For comparison, the spectra of pure acids were also measured, while the pH of the solution of acids was adjusted to the same value as the solution of the complexes. The chemical shifts were referenced to the TSP (3-(trimethylsilyl)propionic-2,2,3,3-d4 acid sodium salt) peak (^1H NMR 0.00 ppm). The NMR data were recorded at 300 K, with chemical shifts δ reported in parts per million and coupling constants J in Hertz. All data were analysed using MestReNova 12.0.0 (2017) software. The stability in 1% DMSO-d6/D2O was determined for all samples. […]

[16] = biological target: T1, bovine serum albumin (BSA) (Bos taurus, UniProt P02769); experiment: BSA fluorescence quenching (Stern-Volmer); format: binding; conditions: 0.01 M PBS buffer pH 7.4, 25 °C, λex = 280 nm
T1 construct: purchased Sigma-Aldrich Chemicals
T1 sequence (P02769 25-607): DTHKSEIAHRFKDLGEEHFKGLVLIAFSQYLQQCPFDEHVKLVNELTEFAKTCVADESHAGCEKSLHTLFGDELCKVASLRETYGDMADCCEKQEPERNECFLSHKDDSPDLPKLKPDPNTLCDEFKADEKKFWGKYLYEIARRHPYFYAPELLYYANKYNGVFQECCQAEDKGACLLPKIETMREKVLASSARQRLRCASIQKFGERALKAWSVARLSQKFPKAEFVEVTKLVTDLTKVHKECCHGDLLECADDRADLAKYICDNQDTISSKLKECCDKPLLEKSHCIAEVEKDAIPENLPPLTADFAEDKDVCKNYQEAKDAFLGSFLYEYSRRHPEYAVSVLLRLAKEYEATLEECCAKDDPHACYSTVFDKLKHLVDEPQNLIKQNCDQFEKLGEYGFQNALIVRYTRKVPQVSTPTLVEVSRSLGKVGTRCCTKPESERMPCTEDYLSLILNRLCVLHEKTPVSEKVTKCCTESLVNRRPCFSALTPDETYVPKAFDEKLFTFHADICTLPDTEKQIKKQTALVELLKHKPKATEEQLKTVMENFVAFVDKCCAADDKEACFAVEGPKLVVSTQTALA
Description: Fluorescence measurements were carried out on a Varian Cary Eclipse spectrofluorometer. The quenching studies of BSA with the Ga(III) complexes were investigated to determine whether they were able to quench fluorescence of BSA. All measurements were performed at 25 °C in 0.01 M PBS buffer (pH 7.4). The fluorescence spectra were measured at an excitation wavelength of 280 nm, with a slit width of 10 nm for the excitation and emission beams, in the range of 300–450 nm and analysed according to the classical Stern–Volmer Equation: F0/F=1+KSVQ where F0 and F are the fluorescence intensities in the absence and the presence of the quencher, respectively, KSV is the Stern–Volmer constant, and [Q] is the concentration of quencher.

[17] = Description: The stock solution of HPic and H2Dpic was prepared by dissolving in demineralized water (c(ligand) = 0.02 M). The gallium(III) ion solution was prepared from anhydrous gallium(III) nitrate (c(Ga^3+) = 0.05 M) and was standardized by back titration of excess of EDTA with zinc(II). Decarbonated potassium hydroxide solution (approx. 0.2 M) was used as a titrant that was standardized by potassium hydrogen phthalate (c(KHP) = 0.1 M). Standard inert electrolyte of nitric acid was used in all titrations (c(HNO3) = 0.03 M, I(HNO3/KNO3) = 0.1 M). Potentiometric measurements were carried out using a TitroLine 7000 dosage system with a BlueLine combination electrode (SI Analytics) in a glass vessel (5 mL) thermostated at 25 ± 0.1 °C at an ionic strength I(KNO3) = 0.1 M. Inert atmosphere was ensured by a constant flow of a nitrogen gas. Precise calibration of the electrode was carried out by the titration of 0.03 M HNO3 with 0.2 M KOH in the range –log[H^+] = 1.8–12.0, with the pH-meter yielding E values. The relation between E and –log[H^+] is expressed by Eq. (1) where the term E^0 contains the standard potentials of the electrode and the contribution of inert ions to the liquid-junction potential. The value S corresponds to the Nernstian slope, the value of which should be close to the theoretical value, and j1[H^+] and j2[OH^–] = j2Kw/[H^+] are contributions of the H^+ and OH^– ions, respectively, to the liquid-junction potential. The pKw value was 13.78 in Eq. (1).1 E=E^0-S-logH^++j1H^++j2Kw/H^+
The parameters j1 and j2 cause deviation from linear dependence between E and –log[H^+] only in strongly acidic and strongly alkaline solutions. The picolinic and dipicolinic acid protonation constants were determined with ligand concentration 0.004 M. The stability constants in the Ga-HPic and Ga-H2Dpic binary system were determined by the ligand concentrations 0.004 and the Ga^3+ concentration was 0.004, 0.002 and 0.001 M in dependence on the ligand to metal ratio.
The protonation constants β110, β210 are the concentration constants and are defined by β110 = [HL]/ [H][L], β210 = [H2L]/ [H]^2[L] (pK2 = logβ110, pK1 = logβ210- logβ110); the stability constants are defined by βrqp = [HrLqMp]/[H]^r[L]^q[M]^p. The equilibrium constants were obtained by fitting the titration data with OPIUM [23]. The following hydrolysis constants were used for the calculations: βpr = [Mp(OH)r^3−r][H]^r/[M]^p; log β11 = − 2.74; log β12 = − 7.0; log β13 = − 11.96; log β14 = − 15.52 [24].

Structure (SMILES) | IC50 [1] | IC50 [2] | IC50 [3] | IC50 [4] | IC50 [5] | IC50 [6] | IC50 [7] | partial inhibition of E. coli growth [1] | inhibition of S. aureus growth [3] | IC50 [8] | IC50 [9] | IC50 [10] | IC50 [11] | IC50 [12] | IC50 [13] | IC50 [14] | stability in 1% DMSO-d6/D2O solution [15] | also measured
O=[N+]([O-])[O-].O=[N+]([O-])[O-].O=[N+]([O-])[O-].[Ga+3] [Ga(NO3)3, gallium(III) nitrate] | > 500 µM | > 500 µM | > 500 µM | > 500 µM | > 500 µM | > 500 µM | > 500 µM |  |  |  |  |  |  |  |  |  |  | 
O.O.O.O.O.O.O=C([O-])c1cc(O)cc(C(=O)[O-])n1.O=C([O-])c1cc(O)cc(C(=O)[O-])n1.[Ga+3].[Ga+3].[OH-].[OH-] [GaChel, [Ga(Chel)(H2O)(OH)]2·4H2O] | > 2000 µM | 500 µM | 2000 µM | > 2000 µM | > 2000 µM | > 2000 µM | > 2000 µM | 9% | 50% | 415 ± 4 µM | 406 ± 86.8 µM | 1410 ± 155 µM | 418 ± 100 µM | 199 ± 45.6 µM | 610 ± 54 µM | 347 ± 25.5 µM | stable | MIC100 (MIC) P. aeruginosa ([2]; growth fully inhibited (100%)): 1000 µM
O.O=C([O-])c1cccc(C(=O)[O-])n1.O=C([O-])c1cccc(C(=O)[O-])n1.[Ga+3].[OH3+] [GaDpic, H3O[Ga(Dpic)2]·H2O] | > 2000 µM |  | > 2000 µM | > 2000 µM | > 2000 µM | > 2000 µM | > 2000 µM | 30% | 24% | 287 ± 59.3 µM | 1240 ± 58.9 µM | 1140 ± 135 µM | 325 ± 34.9 µM | 308 ± 67.8 µM | 509 ± 32.6 µM | 288 ± 26.6 µM | stable | Stern–Volmer binding constant Ksv BSA [16]: 68500 M⁻¹
O=C([O-])c1cccc(C(=O)[O-])n1.O=C([O-])c1cccc(C(=O)[O-])n1.[Ga+3].[OH-] [[Ga(Dpic)2(OH)]^2−] |  |  |  |  |  |  |  |  |  |  |  |  |  |  |  |  |  | stability constant logβ-121 [17]: 11.08(4)
O=C([O-])c1cccc(C(=O)[O-])n1.O=C([O-])c1cccc(C(=O)[O-])n1.[Ga+3] [[Ga(Dpic)2]^−] |  |  |  |  |  |  |  |  |  |  |  |  |  |  |  |  |  | stability constant logβ021 [17]: 15.42(9)
